Laboratory results taken from US20260265246A1 (ICAHN SCHOOL OF MEDICINE AT MOUNT SINAI, priority 2021, published 2026).
Where two headings read alike, the source gives them in different places.

Tests used:
[1] = target: T1, 5HT2A receptor (Homo sapiens, UniProt P28223); assay: biochemical; type: binding; set-up: expressed in transfected cells; crude membranes
[2] = target: T1, 5HT2A receptor; assay: cell-based; set-up: expressed in transfected cells; host or cells: HEK293T cells, transient co-transfection; conditions: BRET1 beta-arrestin2 recruitment, HEK293T cells
[3] = target: T1, 5HT2A receptor; assay: cell-based; set-up: expressed in transfected cells; host or cells: HEK293T cells, transient co-transfection; conditions: for Emax: HEK-293T
[4] = 5HT2A Ki (nM), secondary binding assay, Cheng-Prusoff
[5] = 5HTA Gq EC50 (nM), BRET2 Gαq dissociation, HEK293T
[6] = BRET2 Gαq dissociation, HEK293T, normalized to 5-HT, read-out: 5HTA Gq Emax (%)
[7] = read-out: 5HTA Gq Emax (%), BRET2 Gαq dissociation, HEK293T, normalized to 5-HT
[8] = BRET2 Gαq dissociation, HEK293T, read-out: 5HTA Gq EC50

T1 sequence (P28223 whole entry): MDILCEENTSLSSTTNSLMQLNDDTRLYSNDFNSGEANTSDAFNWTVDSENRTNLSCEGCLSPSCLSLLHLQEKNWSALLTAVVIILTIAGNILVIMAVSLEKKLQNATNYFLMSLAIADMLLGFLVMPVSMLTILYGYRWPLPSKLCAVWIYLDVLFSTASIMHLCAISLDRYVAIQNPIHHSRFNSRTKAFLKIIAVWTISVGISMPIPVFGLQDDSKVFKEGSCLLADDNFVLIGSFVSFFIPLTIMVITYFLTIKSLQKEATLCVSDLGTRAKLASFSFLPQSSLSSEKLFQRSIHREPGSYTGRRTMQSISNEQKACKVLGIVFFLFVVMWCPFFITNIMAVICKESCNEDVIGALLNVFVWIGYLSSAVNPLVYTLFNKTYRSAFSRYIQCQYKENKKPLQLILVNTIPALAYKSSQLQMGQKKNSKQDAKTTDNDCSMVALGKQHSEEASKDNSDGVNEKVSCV

| SMILES | Ki [1, 4] [nM] | EC50 [3, 5] [nM] | Emax [3, 6] [%] | other results |
| --- | --- | --- | --- | --- |
| CN1CCC=C(c2c[nH]c3nccc(-c4ccccc4)c23)C1 [Example 16, 3-(1-methyl-1,2,5,6-tetrahydropyridin-3-yl)-4-phenyl-1H-pyrrolo[2,3-b]pyridine] | – | – | – | Ki ([1]; 5HT2A Ki (nM), secondary radioligand binding, Ki from IC50 by Cheng-Prusoff): 164 nM; EC50 ([2]; 5HT2A β-Arr EC50 (nM)): 2140 nM; Emax ([2]; HEK-293T, normalized to 5-HT, read-out: 5HT2A β-Arr Emax (%)): 49.6% |
| Cc1ccc2[nH]cc(C3=CCCN(C)C3)c2n1 [Example 140, 5-methyl-3-(1-methyl-1,2,5,6-tetrahydropyridin-3-yl)-1H-pyrrolo[3,2-b]pyridine] | 1130 | 247 | 62.6 | – |
| C1=C(c2c[nH]c3ccncc23)CNCC1 [Example 141, 3-(1,2,5,6-tetrahydropyridin-3-yl)-1H-pyrrolo[3,2-c]pyridine] | 739 | 631 | 91.3 | – |
| CCCN1CCC=C(c2c[nH]c3ccncc23)C1 [Example 144, 3-(1-propyl-1,2,5,6-tetrahydropyridin-3-yl)-1H-pyrrolo[3,2-c]pyridine] | 8250 | 1180 | 67.2 | – |
| Clc1cccc2c(C3=CCCN(CC4CC4)C3)n[nH]c12 [Example 151, 7-chloro-3-(1-(cyclopropylmethyl)-1,2,5,6-tetrahydropyridin-3-yl)-1H-indazole] | 198 | 61.1 | – | Emax [3, 7]: 38.8% |
| CC(F)(F)CN1CCC=C(c2n[nH]c3c(Cl)cccc23)C1 [Example 163, 7-chloro-3-(1-(2,2-difluoropropyl)-1,2,5,6-tetrahydropyridin-3-yl)-1H-indazole] | > 10000 | 604 | 82.4 | – |
| CCC(C)N1CCC=C(c2n[nH]c3c(Cl)cccc23)C1 (stereo not drawn) [Example 167, 3-(1-(sec-butyl)-1,2,5,6-tetrahydropyridin-3-yl)-7-chloro-1H-indazole] | 525 | 173 | 25.7 | – |
| CCCN(CCC)C1CCC=C(c2n[nH]c3c(Cl)cccc23)C1 (stereo not drawn) [Example 172, 3-(7-chloro-1H-indazol-3-yl)-N,N-dipropylcyclohex-3-en-1-amine] | > 10000 | 4020 | 66.4 | – |
| CCCN1CCC=C(c2n[nH]c3c(Cl)cc(F)cc23)C1 [Example 173, 7-chloro-5-fluoro-3-(1-propyl-1,2,5,6-tetrahydropyridin-3-yl)-1H-indazole] | 839 | – | 57.3 | EC50 [3, 8]: 84.6 nM |
| Clc1cccc2c(C34CNCC3C4)n[nH]c12 (stereo not drawn) [Example 180, 3-(3-azabicyclo[3.1.0]hexan-1-yl)-7-chloro-1H-indazole] | 227 | 174 | – | Emax [3, 7]: 109% |
| Clc1cccc2c(C34CNCCC3C4)n[nH]c12 (stereo not drawn) [Example 181, 3-(3-azabicyclo[4.1.0]heptan-1-yl)-7-chloro-1H-indazole] | 842 | 120 | – | Emax [3, 7]: 61.3% |
| CCCN1CCC2CC2(c2n[nH]c3c(Cl)cccc23)C1 (stereo not drawn) [Example 182, 7-chloro-3-(3-propyl-3-azabicyclo[4.1.0]heptan-1-yl)-1H-indazole] | 2470 | 786 | 78.9 | – |
| CN1CC2CC2(c2n[nH]c3c(Cl)cccc23)C1 (stereo not drawn) [Example 183, 7-chloro-3-(3-methyl-3-azabicyclo[3.1.0]hexan-1-yl)-1H-indazole] | 595 | 251 | – | Emax [3, 7]: 69.7% |
| FC1(F)C2CCNCC21c1n[nH]c2c(Cl)cccc12 (stereo not drawn) [Example 188, 7-chloro-3-(7,7-difluoro-3-azabicyclo[4.1.0]heptan-1-yl)-1H-indazole] | 2100 | 1460 | – | Emax [3, 7]: 83.7% |
| Fc1cc(Cl)c2[nH]nc(C34CNCCC3C4(F)F)c2c1 (stereo not drawn) [Example 191, 7-chloro-3-(7,7-difluoro-3-azabicyclo[4.1.0]heptan-1-yl)-5-fluoro-1H-indazole] | 3040 | 1620 | 83 | – |
| Fc1cccc2c(C34CNCCC3C4)n[nH]c12 (stereo not drawn) [Example 194, 3-(3-azabicyclo[4.1.0]heptan-1-yl)-7-fluoro-1H-indazole] | 2480 | 795 | 64.4 | – |
| Fc1cc(Cl)c2[nH]nc(C34CNCCC3C4)c2c1 (stereo not drawn) [Example 196, 3-(3-azabicyclo[4.1.0]heptan-1-yl)-7-chloro-5-fluoro-1H-indazole] | 910 | 220 | 67 | – |
| CN1CCC2CC2(c2n[nH]c3c(Cl)cc(F)cc23)C1 (stereo not drawn) [Example 198, 7-chloro-5-fluoro-3-(3-methyl-3-azabicyclo[4.1.0]heptan-1-yl)-1H-indazole] | 1450 | 1160 | 45.1 | – |
| Fc1cc(Cl)c2[nH]nc(C34CNCC3C4(F)F)c2c1 (stereo not drawn) [Example 203, 7-chloro-3-(6,6-difluoro-3-azabicyclo[3.1.0]hexan-1-yl)-5-fluoro-1H-indazole] | 1080 | 700 | 39.5 | – |
| CN1CCCC=C(c2n[nH]c3c(Cl)cccc23)C1 [Example 211, 7-chloro-3-(1-methyl-2,5,6,7-tetrahydro-1H-azepin-3-yl)-1H-indazole] | 1180 | 732 | 59.9 | – |

| SMILES | Ki [1, 4] [nM] | EC50 [3, 5] [nM] | Emax [3, 6] [%] | other results |
| --- | --- | --- | --- | --- |
| Clc1cccc2c(C3=CCCCNC3)c[nH]c12 [Example 212, 7-chloro-3-(2,5,6,7-tetrahydro-1H-azepin-3-yl)-1H-indole] | 6240 | 655 | – | Emax [3, 7]: 72.5% |
| Clc1cccc2c(C3=CC4CCC3NC4)n[nH]c12 (stereo not drawn) [Example 223, 6-(7-chloro-1H-indazol-3-yl)-2-azabicyclo[2.2.2]oct-5-ene] | 1920 | 717 | – | Emax [3, 7]: 89.7% |
| Clc1cccc2c(C3CC4CCC(C3)N4)n[nH]c12 (stereo not drawn) [Example 225, 3-(8-azabicyclo[3.2.1]octan-3-yl)-7-chloro-1H-indazole] | 2110 | 500 | 105 | – |
| Cc1cccc2c(C34CC3CN(C)C4)n[nH]c12 (stereo not drawn) [Example 227, 7-methyl-3-(3-methyl-3-azabicyclo[3.1.0]hexan-1-yl)-1H-indazole] | 1450 | 684 | 32.5 | – |
| Clc1cccc2c(C34CCNCC3C4)n[nH]c12 (stereo not drawn) [Example 228, 3-(3-azabicyclo[4.1.0]heptan-6-yl)-7-chloro-1H-indazole] | 5240 | 1070 | 76.4 | – |
| Clc1cccc2c(C3=CCNCC3)n[nH]c12 [Example 241, 7-chloro-3-(1,2,3,6-tetrahydropyridin-4-yl)-1H-indazole] | 376 | – | 63.4 | EC50 [3, 8]: 65 nM |
| CCCN1CC=C(c2c[nH]c3c(Cl)cccc23)CC1 [Example 243, 7-chloro-3-(1-propyl-1,2,3,6-tetrahydropyridin-4-yl)-1H-indole] | 27.2 | 104 | – | Emax [3, 7]: 41.9% |
| CCCc1cccc2c(C3=CCCN(C)C3)c[nH]c12 [Example 244, 3-(1-methyl-1,2,5,6-tetrahydropyridin-3-yl)-7-propyl-1H-indole] | 1550 | 397 | – | Emax [3, 7]: 77.2% |
| CN1CCOC(c2c[nH]c3c(Cl)cccc23)C1 (stereo not drawn) [Example 246, 2-(7-chloro-1H-indol-3-yl)-4-methylmorpholine] | 2140 | 620 | 69.6 | – |
| Fc1cc(Cl)c2[nH]cc(C3CNCCO3)c2c1 (stereo not drawn) [Example 249, 2-(7-chloro-5-fluoro-1H-indol-3-yl)morpholine] | 1020 | 118 | 72.2 | – |
| Clc1cccc2c(C3=CN4CCC3CC4)c[nH]c12 [Example 250, 3-(7-chloro-1H-indol-3-yl)-1-azabicyclo[2.2.2]oct-2-ene] | 1630 | 1290 | 73.1 | – |
| Cc1cccc2c(C3CNC3)c[nH]c12 [Example 258, 3-(azetidin-3-yl)-7-methyl-1H-indole] | 674 | 444 | – | Emax [3, 7]: 82.1% |
| Fc1cccc2c(C3CNC3)c[nH]c12 [Example 259, 3-(azetidin-3-yl)-7-fluoro-1H-indole] | 168 | 944 | – | Emax [3, 7]: 81.6% |
| CN1CC(c2c[nH]c3c(F)cccc23)C1 [Example 260, 7-fluoro-3-(1-methylazetidin-3-yl)-1H-indole] | 357 | 422 | 63.1 | – |
| CC(C)c1cccc2c(C3CNC3)c[nH]c12 [Example 262, 3-(azetidin-3-yl)-7-isopropyl-1H-indole] | 1910 | 316 | 114 | – |
| Cc1cc(Cl)cc2c(C3CNC3)c[nH]c12 [Example 263, 3-(azetidin-3-yl)-5-chloro-7-methyl-1H-indole] | 244 | 127 | 63.7 | – |
| Fc1cc(F)c2[nH]cc(C3CNC3)c2c1 [Example 264, 3-(azetidin-3-yl)-5,7-difluoro-1H-indole] | – | 165 | 44.7 | Ki ([1]; secondary binding assay, Cheng-Prusoff, read-out: 5HT2A Ki): 98.8 nM |
| c1cnc2[nH]cc(C34CNCCC3C4)c2c1 (stereo not drawn) [Example 268, 3-(3-azabicyclo[4.1.0]heptan-1-yl)-1H-pyrrolo[2,3-b]pyridine] | 5940 | 740 | 98 | – |
| Cc1cccc2c(C34CNCCC3C4)c[nH]c12 (stereo not drawn) [Example 271, 3-(3-azabicyclo[4.1.0]heptan-1-yl)-7-methyl-1H-indole] | 3150 | 327 | 80.1 | – |
